pIC50: −log10 of the molar value.
Assays:
[1] = tested on: transplanted tumor with HL60 cells; assay: Mouse transplanted tumor model, HL60; type: in vivo; conditions: mice, HL60 tumor under the skin, intraperitoneal 0.125 ml per day, 18-35 d
Method: (§1) Developing mouse transplanted tumor models with acute myeloid leukemic cell lines such as Kasumi-1, HL60 and U937 cells, inject 1×10^7 leukemic cells under the skin. When the tumors are 5 mm in diameter, divide the mice into two groups, control group(con) and groups with SM1044 in various concentrations. Mice intraperitoneally infused with 0.125 ml (kasumi-1 and H160 cells) or 0.1 ml (U937 cells) SM1044 per day, while mice in control groups get equivalent saline, for a course of 18-35 d, measuring the tumors everyday.

AML1-ETO fusion protein = molecular target: T1, AML1-ETO fusion protein (Homo sapiens, UniProt Q01196+Q06455); assay: Western blot of AML1-ETO fusion protein in Kasumi-1 cells; type: cell-based; conditions: Kasumi-1, 1 μM/L, 24 hours
T1 construct: Extracting whole protein of the cells; endogenous in cells; host or cells: Kasumi-1 cells
Method: (§2) Plate 1×10^7 Kasumi-1 cells with 20 mL medium in dish. Setting control group (0 μM) and groups with SM1044 in various concentrations, and incubating for 24 hours. Extract the whole RNA, and detect the variation of fusion gene at the mRNA level by RT-PCR (FIG. 5A). […] Plate 5×10^5 Kasumi-1 cells in a dish. Setting control group (0 μM) and groups with SM1044 in various concentrations, and incubating for 24 hours. Extracting whole protein of the cells, detect the variation of AML1-ETO fusion protein by ETO antibody through western blot (FIG. 5B). […] It can be concluded that SM1044 doesn't effect the transcription of AML1-ETO fusion gene, but can induce the degradation of the fusion protein. As the typical fusion gene of AML-M2b, AML1-ETO fusion protein plays an important role in the occurrence of leukemia, which can be a target for medical treatments.

NB4-R1 cells [2] = assay: Loss of mitochondrial membrane potential, DiOC6(3) flow cytometry, NB4-R1; type: cell-based
Method: (§3) Respectively plate 3×10^5˜5×10^5 cells/ml of Kasumi-1, NB4-R1, HL60 and U937cells in dishes. Setting control group (0 μM) and groups with SM1044 in various concentrations, incubate for 24 h and 48 h. Add 20 nM DiOC6(3) and incubate for 15 min at 37° C. in the dark. Wash cells with PBS twice, and resuspend the cells in 100 μLPBS, analyzing by flow cytometry. The cells which are DiOC6(3) negative are those that lose mitochondrial membrane potential. […] There are at least two broad pathways that lead to Apoptosis, an “Extrinsic” and an “Intrinsic” Pathway, and the loss of mitochondrial membrane potential is very closely related to intrinsic pathway.

[3] = tested on: transplanted tumor with Kasumi-1 cells; assay: Mouse transplanted tumor model, Kasumi-1; type: in vivo; conditions: mice, Kasumi-1 tumor under the skin, intraperitoneal 0.125 ml per day, 18-35 d
Method: as §1

U937 cells [4] = assay: MTT inhibition test, U937 cells; type: cell-based; conditions: Homo sapiens, U-937, 48 h
Method: (§4) First dissolve SM1044 in triple distilled water, concentration: 1 mg/ml, then choose typical AML cell lines such as Kasumi-1, NB4-R1, HL60 and U937 cells to perform the experiments. Plate 2.5×10^5 cells in dishes, respectively, blank group, control group without SM1044, and groups with SM1044 in various concentrations, and 3 wells for each concentration. Add MTT (5 mg/ml) to each well after incubating for a certain period, and incubate the plate for further 4 h. Centrifuge and aspirate 180 μl supernatant. Add 180 μl DMSO to each well, and place the plate a shaking table for 15 min. Measure the absorbance(A) at 570 nm using a microplate reader, and calculate the half maximal inhibitory concentration (IC50).

HL60 cells [5] = assay: MTT inhibition test, HL60 cells; type: cell-based; conditions: Homo sapiens, HL-60, 48 h
Method: as §4

Kasumi-1 cells [6] = assay: Annexin V-FITC/PI flow cytometry apoptosis, Kasumi-1; type: cell-based; conditions: Kasumi-1, 24-48 hours, various concentrations
Method: (§5) Respectively plate 3×10^5˜5×10^5 cells/m1 of Kasumi-1, NB4-R1, HL60 and U937cells in dishes. Setting control group (0 μM) and groups with SM1044 in various concentrations, incubate for 24 h and 48 h. Harvest cells and wash cells with pre-cooling phosphate buffer twice. Resuspend the cells in 200 μL binding buffer, and add 5 μL Annexin V-FITC and 5 μL propidium iodide (PI), gently mixing, incubating for 15 min at room temperature in the dark, analyzing by flow cytometry in 1 hour.

[7] = tested on: caspase-3, caspase-8 and/or caspase-9 in NB4-R1 cells; assay: Western blot of apoptosis-related proteins, NB4-R1; type: cell-based; conditions: NB4-R1, 24 hours
Method: (§6) Respectively plate 3×10^5˜5×10^5 cells/ml of NB4-R1, HL60 and U937 cells in dishes. Setting control group (0 μM) and groups with SM1044 in various concentrations, and incubating for 24 hours. Extracting whole protein of the cells, detect the quantitive variation of […] related proteins (PARP, caspase-3, caspase-8, caspase-9) by antibodies through western blot. Caspase family plays an important role in mediating apoptosis. There are at least two broad pathways that lead to Apoptosis. One is extracellular signals activating intracellular caspase-8, etc, the other is mitochondria-derived activators of caspases activating caspase-9, etc. Therefore the activaigted caspases activate apoptotic excutants—caspase3 to induce apoptosis, and PARP is the substrate of caspase-3.

oncogene c-myc = assay: Western blot of c-myc expression in HL60 cells; type: cell-based; conditions: HL60, above 1 μM/L, 24 hours
Method: Plate 3×10^5/mL HL60 cells in dishes. Setting control group (0 μM) and groups with SM1044 in various concentrations, and incubating for 24 hours. Extracting whole protein of the cells, detect the variation of expression of oncogene c-myc by c-myc antibody through western blot. Over-expression of oncogene c-myc is a character of HL60 cells.

[8] = tested on: transplanted tumor with U937 cells; assay: Mouse transplanted tumor model, U937; type: in vivo; conditions: mice, U937 tumor under the skin, intraperitoneal 0.1 ml per day, 18-35 d
Method: as §1

HL60 cells [9] = assay: Cell cycle analysis, PI flow cytometry, HL60; type: cell-based; conditions: for cells in G0/G1 phase / cells in G2/M phase / cells in S phase: 12 hours
Method: (§7) Plate 5×10^5/mL Kasumi-1 cells and HL60 cells respectively in dishes. Setting control group (0 μM) and groups with SM1044 in various concentrations, and incubating for 24 hours (kasumi-1 cells) or 12 hours (HL60 cells). Harvest the cells, wash cells with PBS twice, and add 70% ice cold ethanol overnight to fix the cells. Wash cells with PBS, and resuspend the cells in PBS with 10 mg/ml RNase, incubating at 37° C. for 30 min. Add 50 μg/ml propidium iodide (PI), analyzing the distribution of DNA contents by flow cytometry in 1 hour.

HL-60 cells = assay: Loss of mitochondrial membrane potential, DiOC6(3) flow cytometry, HL-60; type: cell-based
Method: as §3

U937 cells [10] = assay: Loss of mitochondrial membrane potential, DiOC6(3) flow cytometry, U937; type: cell-based
Method: as §3

AML1-ETO fusion gene = assay: RT-PCR of AML1-ETO fusion gene mRNA in Kasumi-1 cells; type: cell-based; conditions: Kasumi-1, 24 hours
Method: as §2

NB4-R1 cells [11] = assay: MTT inhibition test, NB4-R1 cells; type: cell-based; conditions: 48 h
Method: as §4

Kasumi-1 cells [12] = assay: Cell cycle analysis, PI flow cytometry, Kasumi-1; type: cell-based; conditions: for cells in G0/G1 phase / cells in G2/M phase / cells in S phase: 24 hours
Method: as §7

Kasumi-1 cells [13] = assay: Loss of mitochondrial membrane potential, DiOC6(3) flow cytometry, Kasumi-1; type: cell-based
Method: as §3

U937 cells [14] = assay: Annexin V-FITC/PI flow cytometry apoptosis, U937; type: cell-based; conditions: U937, 24-48 hours, various concentrations
Method: as §5

[15] = tested on: caspase-3, caspase-8 and/or caspase-9 in HL60 cells; assay: Western blot of apoptosis-related proteins, HL60; type: cell-based; conditions: HL60, 24 hours
Method: as §6

Kasumi-1 cells [16] = assay: MTT inhibition test, Kasumi-1 cells; type: cell-based; conditions: Homo sapiens, 48 h
Method: as §4

NB4-R1 cells [17] = assay: Annexin V-FITC/PI flow cytometry apoptosis, NB4-R1; type: cell-based; conditions: NB4-R1, 24-48 hours, various concentrations
Method: as §5

HL60 cells [18] = assay: Annexin V-FITC/PI flow cytometry apoptosis, HL60; type: cell-based; conditions: HL60, 24-48 hours, various concentrations
Method: as §5

[19] = tested on: caspase-3, caspase-8 and/or caspase-9 in U937 cells; assay: Western blot of apoptosis-related proteins, U937; type: cell-based; conditions: U937, 24 hours
Method: as §6

T1 sequence (Q01196+Q06455 fused): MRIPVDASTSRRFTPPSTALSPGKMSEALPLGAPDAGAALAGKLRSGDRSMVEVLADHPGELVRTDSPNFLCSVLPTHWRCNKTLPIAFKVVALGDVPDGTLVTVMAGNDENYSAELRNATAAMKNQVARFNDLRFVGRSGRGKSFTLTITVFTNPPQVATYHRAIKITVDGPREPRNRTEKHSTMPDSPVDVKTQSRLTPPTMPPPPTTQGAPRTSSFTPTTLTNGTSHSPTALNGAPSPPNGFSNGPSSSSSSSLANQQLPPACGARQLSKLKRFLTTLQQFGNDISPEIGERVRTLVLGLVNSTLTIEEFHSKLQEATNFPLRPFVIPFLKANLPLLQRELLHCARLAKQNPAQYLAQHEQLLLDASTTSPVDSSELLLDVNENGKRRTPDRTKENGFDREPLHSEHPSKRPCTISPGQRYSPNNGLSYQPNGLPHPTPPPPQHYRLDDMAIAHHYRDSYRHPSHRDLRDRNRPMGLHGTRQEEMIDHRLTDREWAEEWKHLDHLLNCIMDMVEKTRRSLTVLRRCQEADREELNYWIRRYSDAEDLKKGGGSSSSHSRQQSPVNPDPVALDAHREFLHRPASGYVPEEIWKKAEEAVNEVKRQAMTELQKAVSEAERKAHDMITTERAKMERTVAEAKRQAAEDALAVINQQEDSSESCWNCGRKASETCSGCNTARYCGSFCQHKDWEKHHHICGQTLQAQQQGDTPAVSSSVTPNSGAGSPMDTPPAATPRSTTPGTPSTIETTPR

## C[C@H]1[C@@H](OCCNCCO[C@H]2O[C@@H]3O[C@@]4(C)CC[C@H]5[C@H](C)CC[C@@H]([C@H]2C)[C@@]35OO4)O[C@@H]2O[C@@]3(C)CC[C@H]4[C@H](C)CC[C@@H]1[C@@]24OO3.O=C(O)/C=C\C(=O)O [SM1044, diarteethe amine maleate]
[1]
  tumor size compared with control group: obviously little than controls
AML1-ETO fusion protein
  degradation of AML1-ETO fusion protein: can induce the degradation of AML1-ETO fusion protein
NB4-R1 cells [2]; 0.1 μM, 24 h
  percentage of DiOC6(3) negative NB4-R1 cells: 13.9%
NB4-R1 cells [2]; 0.1 μM, 48 h
  percentage of DiOC6(3) negative NB4-R1 cells: 16.3%
NB4-R1 cells [2]; 1 μM, 24 h
  percentage of DiOC6(3) negative NB4-R1 cells: 17.1%
NB4-R1 cells [2]; 1 μM, 48 h
  percentage of DiOC6(3) negative NB4-R1 cells: 33.0%
NB4-R1 cells [2]; 5 μM, 24 h
  percentage of DiOC6(3) negative NB4-R1 cells: 15.0%
NB4-R1 cells [2]; 5 μM, 48 h
  percentage of DiOC6(3) negative NB4-R1 cells: 30.0%
[3]
  tumor size compared with control group: obviously little than controls
U937 cells [4]
  pIC50: 7.70
HL60 cells [5]
  pIC50: 7.40
Kasumi-1 cells [6]
  apoptosis induction: can induce apoptosis
[7]
  activated apoptosis-related proteins (caspase-3, caspase-8 and/or caspase-9): increase
Oncogene c-myc
  expression of oncogene c-myc: completely inhibit
[8]
  tumor size compared with control group: obviously little than controls
HL60 cells [9]; HL60, 0.1 μM
  cells in G0/G1 phase: 41.60%
  cells in G2/M phase: 3.80%
  cells in S phase: 54.61%
HL60 cells [9]; HL60, 1 μM
  cells in G0/G1 phase: 44.12%
  cells in G2/M phase: 8.00%
  cells in S phase: 47.88%
HL60 cells [9]; HL60, 5 μM
  cells in G0/G1 phase: 54.48%
  cells in G2/M phase: 8.00%
  cells in S phase: 37.52%
HL60 cells [9]; HL60, 12 hours
  cell cycle block: blocked in G0/G1 phase
HL-60 cells; 0.1 μM, 24 h
  percentage of DiOC6(3) negative HL-60 cells: 23.8%
HL-60 cells; 0.1 μM, 48 h
  percentage of DiOC6(3) negative HL-60 cells: 61.7%
HL-60 cells; 1 μM, 24 h
  percentage of DiOC6(3) negative HL-60 cells: 25.6%
HL-60 cells; 1 μM, 48 h
  percentage of DiOC6(3) negative HL-60 cells: 77.1%
HL-60 cells; 5 μM, 24 h
  percentage of DiOC6(3) negative HL-60 cells: 48.5%
HL-60 cells; 5 μM, 48 h
  percentage of DiOC6(3) negative HL-60 cells: 81.1%
U937 cells [10]; 0.1 μM, 24 h
  percentage of DiOC6(3) negative U937 cells: 4.3%
U937 cells [10]; 0.1 μM, 48 h
  percentage of DiOC6(3) negative U937 cells: 5.9%
U937 cells [10]; 1 μM, 24 h
  percentage of DiOC6(3) negative U937 cells: 5.2%
U937 cells [10]; 1 μM, 48 h
  percentage of DiOC6(3) negative U937 cells: 5.6%
U937 cells [10]; 5 μM, 24 h
  percentage of DiOC6(3) negative U937 cells: 9.4%
U937 cells [10]; 5 μM, 48 h
  percentage of DiOC6(3) negative U937 cells: 16.2%
AML1-ETO fusion gene
  variation of AML1-ETO fusion gene at the mRNA level: no effect on the transcription of fusion gene
NB4-R1 cells [11]
  pIC50: 7.68
Kasumi-1 cells [12]; Kasumi-1, 0.1 μM
  cells in G0/G1 phase: 59.62%
  cells in G2/M phase: 6.01%
  cells in S phase: 34.37%
Kasumi-1 cells [12]; Kasumi-1, 1 μM
  cells in G0/G1 phase: 71.75%
  cells in G2/M phase: 6.70%
  cells in S phase: 21.75%
Kasumi-1 cells [12]; Kasumi-1, 5 μM
  cells in G0/G1 phase: 71.07%
  cells in G2/M phase: 6.00%
  cells in S phase: 21.92%
Kasumi-1 cells [12]; Kasumi-1, 24 hours
  cell cycle block: blocked in G0/G1 phase
Kasumi-1 cells [13]; 0.1 μM, 24 h
  percentage of DiOC6(3) negtive Kasumi-1 cells: 24.1%
Kasumi-1 cells [13]; 0.1 μM, 48 h
  percentage of DiOC6(3) negtive Kasumi-1 cells: 44.9%
Kasumi-1 cells [13]; 1 μM, 24 h
  percentage of DiOC6(3) negtive Kasumi-1 cells: 33.8%
Kasumi-1 cells [13]; 1 μM, 48 h
  percentage of DiOC6(3) negtive Kasumi-1 cells: 47.1%
Kasumi-1 cells [13]; 5 μM, 24 h
  percentage of DiOC6(3) negtive Kasumi-1 cells: 63.2%
Kasumi-1 cells [13]; 5 μM, 48 h
  percentage of DiOC6(3) negtive Kasumi-1 cells: 79.2%
U937 cells [14]
  apoptosis induction: can induce apoptosis
[15]
  activated apoptosis-related proteins (caspase-3, caspase-8 and/or caspase-9): increase
Kasumi-1 cells [16]
  pIC50: 6.77
NB4-R1 cells [17]
  apoptosis induction: can induce apoptosis
HL60 cells [18]
  apoptosis induction: can induce apoptosis
[19]
  activated apoptosis-related proteins (caspase-3, caspase-8 and/or caspase-9): increase

From patent US20130317095A1, “Use of Artemisine Derivatives and Pharmaceutical Salts Thereof” (Shanghai Institute of Materia Medica, Chinese Academy of …, priority 2011, published 2013)
